The source of these data is US11931346B2, “Uses of 4′-desferrithiocin analogs” (University of Florida Research Foundation, Incorporated, priority 2011, dated 2024).

Read-outs that look alike come from different tables or passages of the source.

In data set [1] the test system is acetic acid-induced colitis in rats. The experiment in a line: Prevention of acetic acid-induced colitis in a rat model. It is filed as in vivo, Sprague-Dawley rats. The conditions noted are these: DFO 20 mg/kg 30 minutes before 4% acetic acid (FIG. 1). The procedure: Induction of colitis. Male Sprague-Dawley rats (250-350 g) were anesthetized with sodium pentobarbital, 55 mg/kg intraperitoneally. The abdomen was shaved and prepared for surgery. A midline incision was made, and the cecum and proximal colon were exteriorized. A reversible suture was placed at the junction of the cecum and proximal colon. The colon was rinsed with saline (10 ml), and the fluid and intestinal contents were gently expressed out the rectum. A gum-based rectal plug was inserted. The compound of interest, or distilled water in the control animals (2 ml), was injected intracolonically just distal to the ligature. The cecum and proximal colon were returned to the abdominal cavity; the compound was allowed to remain in the gut for 30 min. Then, the cecum and proximal colon were exteriorized again. The rectal plug was removed, and the drug was gently expressed out of the colon. […] The entire length of the colon was removed and assessed for damage both densitometrically and biochemically.
Quantitation of acetic acid-induced colitis. Gross damage was quantitated using Photoshop-based image analysis (version 5.0, Adobe Systems, Mountain View, Calif., USA) on an Apple iMac computer. […] The cursor was then placed on the histogram, the color range determined in an earlier step was selected, and the number of pixels encompassing that range and the percent damage were quantitated automatically.

A short description of data set [2]: Apparent partition coefficient (LogPapp) of DFT analogs. In kind it is physicochemical.
A short description of data set [3]: Concentration of DFT analogs in rat plasma and cerebrospinal fluid after PO or SC dose. In kind it is in vivo, Sprague-Dawley rats. The conditions noted are these: rats, PO 300 μmol/kg, monosodium salt. As to the method: Adult male Sprague-Dawley rats (450-500 g) were used. The rats were not fasted. A sample solution of a monosodium salt of (S)-4′-(HO)-DADFT-norPE (III-A) or (S)-4′-(HO)-DADFT-PE (IV-A) was administered to the rats at an oral or subcutaneous dose of 300 μmol/kg. Concentrations of the DFT analogs in the plasma and cerebrospinal fluid of the rats were measured at 0.5 hour, 1 hour, 2 hours, 4 hours, and 8 hours post administration.

A short description of data set [4]: Concentration of DFT analogs in rat plasma and eyes after SC dose, rats not perfused. In kind it is in vivo. The conditions noted are these: non-perfused rats, SC 300 μmol/kg, one hour post dose; for Concentration in the eye: entire eye; for concentration at 1 h: rat, plasma. The procedure: (§1) Rats were anesthetized with ketamine/xylazine about 50 minutes after dosing. Blood of the rats was collected via cardiac puncture into vacutainer tubes containing buffered sodium citrate one hour post dose. The rats' eyes were removed. Any extraneous tissue was trimmed and discarded. The eyes were frozen. The entire eye was then processed and assessed for the concentration of the DFT analog. The whole blood was centrifuged, and the plasma was separated and frozen until the concentration of the DFT analog was determined.

Data set [5] is described as follows: Concentration of DFT analogs in rat plasma and eyes after SC dose, rats perfused with saline. It is filed as in vivo. The conditions noted are these: SC 300 μmol/kg, one hour post dose; for concentration at 1 h: rat, plasma, rats perfused with saline; for Concentration in the eye: rats perfused with saline (about 100 ml, 5 minutes), entire eye. The procedure:
as §1, with “dose. The rats' abdomen and thorax were opened, and a portion of the sternum/ribs was removed. A 19-gauge needle was inserted into the left ventricle of the rats, and the right atrium was cut. About 100 ml of saline was perfused transcardially for five minutes. The perfusion was stopped, and the rats' eyes” for “dose. The rats' eyes”

The mark [6] stands for this setting: male, Sprague-Dawley, rat, cerebrospinal fluid, read-out: Concentration in cerebrospinal fluid.
[7] abbreviates: male, Sprague-Dawley, rat, plasma, read-out: Concentration in plasma.
Where [8] appears, read: male, Sprague-Dawley, rat, plasma, 1 h, read-out: Concentration in plasma.
The mark [9] stands for this setting: male, Sprague-Dawley, rat, plasma, 2 h.
[10] abbreviates: male, Sprague-Dawley, rat, plasma, 4 h, read-out: Concentration in plasma.

Take `CC(=O)N(O)CCCCCNC(=O)CCC(=O)N(O)CCCCCNC(=O)CCC(=O)N(O)CCCCCN` [DFO, desferrioxamine]: the “Prevention of acetic acid-induced colitis” value in data set [1] is listed as “prevent acetic acid-induced colitis in rats”.

With `COCCOCCOc1ccc(C2=N[C@@](C)(C(=O)O)CS2)c(O)c1` [III-A, (S)-4′-(HO)-DADFT-norPE], in data set [2], the LogPapp was −0.89. For the same compound, the concentration at 0.5 h stood at 8.07 ± 3.09 µM in data set [3] (setting [6]) and 424 ± 60 µM in data set [3] (setting [7]). Also, the concentration at 1 h was 5.7 ± 2.74 µM in data set [3] (male, Sprague-Dawley, rat, cerebrospinal fluid, 1 h, read-out: Concentration in cerebrospinal fluid); 219 ± 19 µM in data set [3] (setting [8]); 218 ± 16 µM in data set [4]; 218 ± 51 µM in data set [5]. Also, the concentration at 4 h was 0 µM in data set [3] (male, Sprague-Dawley, rat, cerebrospinal fluid, 4 h, read-out: Concentration in cerebrospinal fluid) and 2 ± 0.4 µM in data set [3] (setting [10]). Besides, the concentration at 8 h in data set [3] (male, Sprague-Dawley, rat, cerebrospinal fluid, 8 h) is 0 nM. In addition, the concentration at 2 h in data set [3] (setting [9]) is 30 ± 5 µM. Moreover, in data set [3] (2 h), the “Concentration in cerebrospinal fluid” value is 2.32 (only 1 out 3 animals μM. In addition, in data set [3] (8 h), the Concentration in plasma result is listed as “trace”. The “Concentration in the eye” value in data set [4] is given as 25.8 ± 6.0 nmol/g wet weight of the eye; in data set [5], 17.2 ± 5.5 nmol/g wet weight of the eye.

As for `COCCOCCOCCOc1ccc(C2=N[C@@](C)(C(=O)O)CS2)c(O)c1` [IV-A, (S)-4′-(HO)-DADFT-PE], the LogPapp in data set [2] is on record as −1.10. Also, the concentration at 0.5 h in data set [3] (setting [6]) turned out to be 2.14 ± 1.01 µM; in data set [3] (setting [7]) it was 142 ± 57 µM. The concentration at 1 h in data set [3] (setting [8]) was 64 ± 7 µM. The concentration at 2 h in data set [3] (setting [9]) came out at 32 ± 20 µM. Also, in data set [3] (setting [10]), the concentration at 4 h came out at 2 ± 0.5 µM. In addition, the “Concentration in cerebrospinal fluid” value in data set [3] (1 h), in data set [3] (2 h), in data set [3] (4 h) and in data set [3] (8 h) was “trace” in each case. In addition, the Concentration in plasma entry in data set [3] (8 h) is reported as “trace”.

`COc1ccc(C2=N[C@@H](C(=O)O)CS2)c(O)c1` [V-A]: the LogPapp in data set [2] was −0.89. Further, in data set [4], the “Concentration in the eye” value is on record as 37.8 ± 4.3 nmol/g wet weight of the eye and the concentration at 1 h was 701 ± 32 µM. Moreover, in data set [5], the concentration at 1 h was found to be 663 ± 42 µM and the “Concentration in the eye” value is recorded as 29.7 ± 4.3 nmol/g wet weight of the eye.
